Test results published in patent publication US11629171B2, “Beta-hairpin peptidomimetics” (POLYPHOR AG, priority 2017, dated 2023).
Values after ≈ are worked out from the molar mass of the structure shown. Where a SMILES comes first, the peptide text is derived from it. Bridges are numbered along the chain shown (N, C = ends). Roman numbers before positions name the chains, in order. [ ]: non-standard residue; d: D form. d(hSer) = N[C@H](CCO)C(=O)O; Dab = NCC[C@H](N)C(=O)O; Abu = CC[C@H](N)C(=O)O; Dap = NC[C@H](N)C(=O)O

Experiments:
male ICR mice = assay: Tolerability in a mouse model (Maximum Tolerated Dose assay); type: in vivo; conditions: 2 × 40 mg/kg s.c. at a 12-hr interval, groups of 3
Method in brief: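 Peptides in 0.9% NaCl (pH 6.5-7.6) given s.c. at 30 or 40 mg/kg, twice 12 h apart, to groups of 3 male ICR mice (23±3 g). Acute toxic signs (mortality, convulsions, tremors, sedation) and autonomic effects (diarrhea, salivation, piloerection) observed for 30 min after each dose.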

[1] = test system: Acinetobacter baumannii DSM 30008; type: cell-based; conditions: DSM 30008
Method in brief: (§1)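 CLSI broth microdilution in cation-adjusted Mueller-Hinton II broth with 0.002% polysorbate 80 (final), inoculum appr. 10^6 CFU/mL, peptides in serial two-fold dilutions. MIC (μg/mL) is the lowest concentration without visible growth after 18-20 h at 35° C.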

[2] = test system: Klebsiella pneumoniae SSI #3010; type: cell-based; conditions: SSI #3010
Method in brief: as §1

[3] = test system: Pseudomonas aeruginosa ATCC 27853; type: cell-based; conditions: ATCC 27853
Method in brief: as §1

[4] = test system: Enterobacter cloacae 848840; type: cell-based; conditions: 848840
Method in brief: as §1

[5] = test system: Acinetobacter baumannii 872842; type: cell-based; conditions: 872842
Method in brief: as §1

Escherichia coli 926415 = type: cell-based; conditions: 926415
Method in brief: as §1

[6] = test system: Klebsiella pneumoniae 968733; type: cell-based; conditions: 968733
Method in brief: as §1

[7] = test system: Escherichia coli ATCC 25922; type: cell-based; conditions: ATCC 25922
Method in brief: as §1

[8] = test system: human red blood cells (hRBC); assay: Hemolysis; type: cell-based; conditions: red cells of human, 1 h, 200
Method in brief: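 Washed fresh human RBC (20% v/v) incubated with peptide at 200 μg/mL for 1 h at 37° C with shaking. Supernatant OD540 measured after dilution, blank corrected; percent hemolysis = OD540 peptide / OD540 of 2% Triton X-100 lysis × 100, PBS with 10% water as 0%.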

Structure (SMILES) | Mortality and dose (male ICR mice) | MIC [1] [µg/mL] | MIC [2] [µg/mL] | MIC [3] [µg/mL] | MIC [4] [µg/mL] | MIC [5] [µg/mL] | MIC (Escherichia coli 926415) [µg/mL] | MIC [6] [µg/mL] | MIC [7] [µg/mL] | Hemolysis at 200 μg/mL [8] [%]
CC(=O)N[C@H](C(=O)N[C@H]1CSSC[C@@H](C(=O)N[C@@H](CO)C(N)=O)NC(=O)[C@H](C(C)C)NC(=O)[C@H](CCN)NC(=O)[C@H](Cc2c[nH]c3ccccc23)NC(=O)[C@H](CO)NC(=O)[C@@H](CO)NC(=O)[C@H](CCC(=O)N[C@@H](CCN)C(=O)N[C@H](C(=O)N[C@@H](CN)C(=O)N[C@H]2CCNC(=O)[C@H]([C@@H](C)O)NC(=O)[C@H](CCN)NC(=O)[C@H](CCN)NC(=O)[C@H](CC(C)C)NC(=O)[C@@H](CC(C)C)NC(=O)[C@H](CCN)NC2=O)[C@@H](C)O)NC(=O)[C@H](CCN)NC(=O)[C@H](Cc2ccc(O)cc2)NC1=O)C(C)C [Ex. 296] (I: Ac-VCY[Dab]E[dS]SW[Dab]VCS-NH2 / II: [Dab]T[Dap][Dab][Dab][dL]L[Dab][Dab]T; disulfide I:2-I:11; amide I:5-II:N; lactam II:4-II:C) | 0/3 died at 2 × 40 mg/kg | 0.125 (≈ 0.0521 µM) | 0.0625 (≈ 0.0261 µM) | 0.25 (≈ 0.104 µM) | 0.5 (≈ 0.208 µM) | 0.25 (≈ 0.104 µM) | 0.5 (≈ 0.208 µM) | 4 (≈ 1.67 µM) | 0.125 (≈ 0.0521 µM) | <1
CC(=O)N[C@H](C(=O)N[C@H]1CSSC[C@@H](C(=O)N[C@@H](CO)C(N)=O)NC(=O)[C@H](C(C)C)NC(=O)[C@H](CO)NC(=O)[C@H](Cc2c[nH]c3ccccc23)NC(=O)[C@H](CCN)NC(=O)[C@@H](CO)NC(=O)[C@H](CCC(=O)N[C@@H](CCN)C(=O)N[C@H](C(=O)N[C@@H](CN)C(=O)N[C@H]2CCNC(=O)[C@H]([C@@H](C)O)NC(=O)[C@H](CCN)NC(=O)[C@H](CCN)NC(=O)[C@H](CC(C)C)NC(=O)[C@@H](CC(C)C)NC(=O)[C@H](CCN)NC2=O)[C@@H](C)O)NC(=O)[C@H](CCN)NC(=O)[C@H](Cc2ccc(O)cc2)NC1=O)C(C)C [Ex. 297] (I: Ac-VCY[Dab]E[dS][Dab]WSVCS-NH2 / II: [Dab]T[Dap][Dab][Dab][dL]L[Dab][Dab]T; disulfide I:2-I:11; amide I:5-II:N; lactam II:4-II:C) | 0/3 died at 2 × 40 mg/kg | 0.03125 (≈ 0.013 µM) | 0.0625 (≈ 0.0261 µM) | 0.125 (≈ 0.0521 µM) | 0.125 (≈ 0.0521 µM) | 0.0625 (≈ 0.0261 µM) | 0.125 (≈ 0.0521 µM) | 0.125 (≈ 0.0521 µM) | 0.03125 (≈ 0.013 µM) | <1
CC[C@@H]1NC(=O)[C@@H](CC(C)C)NC(=O)[C@H](CCN)NC(=O)[C@@H](NC(=O)[C@H](CN)NC(=O)[C@@H](NC(=O)[C@H](CCN)NC(=O)CC[C@@H]2NC(=O)CNC(=O)[C@H](Cc3ccc(O)cc3)NC(=O)[C@@H](NC(=O)[C@@H](NC(C)=O)C(C)C)CSSC[C@@H](C(=O)N[C@@H](CO)C(N)=O)NC(=O)[C@H](C(C)C)NC(=O)[C@H](CCN)NC(=O)[C@H](Cc3c[nH]c4ccccc34)NC(=O)[C@H](CCN)NC(=O)[C@@H](CCO)NC2=O)[C@@H](C)O)CCNC(=O)[C@H]([C@@H](C)O)NC(=O)[C@H](CCN)NC(=O)[C@H](CCN)NC1=O [Ex. 298] (I: Ac-VCYGE[d(hSer)][Dab]W[Dab]VCS-NH2 / II: [Dab]T[Dap][Dab][Dab][dL][Abu][Dab][Dab]T; disulfide I:2-I:11; amide I:5-II:N; lactam II:4-II:C) | 0/3 died at 2 × 40 mg/kg | 0.0625 (≈ 0.0265 µM) | 0.0625 (≈ 0.0265 µM) | 0.25 (≈ 0.106 µM) | 0.25 (≈ 0.106 µM) | 0.25 (≈ 0.106 µM) | 0.5 (≈ 0.212 µM) | 1 (≈ 0.425 µM) | 0.03125 (≈ 0.0133 µM) | <1
